# Measurements taken from PubChem BioAssay (NCI).
# Values joined by “and” are separate entries in the source; they are usually repeats but may differ in a detail not shown here. Equal entries are not always repeated.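 Step 1: Grow cells in 96-well plates. Step 2: Expose to compound for 48 hours at 5 concentrations. Step 3: Interpolate endpoints linearly; if unreached, use highest concentration. At the GI50, growth is halved. TGI: total growth inhibition.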
# Assays:
# Assay in all cases: growth of human tumour cells (NCI), 48 h
# [1] = test system: SK-MEL-2 melanoma
# [2] = test system: NCI-H226 lung
# [3] = test system: MOLT-4 leukemia
# [4] = test system: UO-31 renal
# [5] = test system: ACHN renal
# [6] = test system: SW-620 colon
# [7] = test system: U251 CNS
# [8] = test system: NCI-H460 lung
# [9] = test system: RPMI-8226 leukemia
# [10] = test system: UACC-62 melanoma
SMILES,GI50 [1],TGI [1],GI50 [2],TGI [2],GI50 [3],TGI [3],GI50 [4],TGI [4],GI50 [5],TGI [5],GI50 [6],TGI [6],GI50 [7],TGI [7],GI50 [8],TGI [8],GI50 [9],TGI [9],GI50 [10],TGI [10]
N#CC1=C(N)NC(=S)NC12Nc1ccccc1O2 (stereo not drawn),20.9 µM,53.4 µM,30.5 µM,> 100 µM,3.72 µM,> 100 µM,25.4 µM,> 100 µM,29.2 µM,99.2 µM,47.6 µM,> 100 µM,28.2 µM,> 100 µM,65.5 µM,> 100 µM,21.9 µM,62.7 µM,20.8 µM,70 µM
c1ccc(C(=NNc2nc3ccccc3o2)c2ccccn2)nc1,0.465 µM,28.8 µM and 27.1 µM,0.0628 µM,,0.0316 µM,> 56.5 µM,0.0427 µM,1.18 µM and 3.03 µM,0.0395 µM,,0.0524 µM,39.8 µM and 19.1 µM,0.0649 µM,20.1 µM and 16.1 µM,0.0575 µM and 0.163 µM,5.22 µM and 1.5 µM,0.047 µM,,0.0863 µM,0.756 µM and 0.413 µM
CCOC(=O)CCCn1c(SC)nc2cc(-c3ccco3)[nH]c2c1=O,36.4 µM,> 100 µM,> 100 µM,> 100 µM,> 100 µM,> 100 µM,72.6 µM,> 100 µM,31.7 µM,> 100 µM,> 100 µM,> 100 µM,17.1 µM,56 µM,> 100 µM,> 100 µM,> 100 µM,> 100 µM,22.5 µM,68.3 µM
CC(=O)C1CC2(c3ccc(C)cc3)C(c3ccc(C)cc3)=C(c3ccc(C)cc3)C1(c1ccc(C)cc1)S2=O (stereo not drawn),> 100 µM,> 100 µM,> 100 µM,> 100 µM,> 100 µM,> 100 µM,> 100 µM,> 100 µM,> 100 µM,> 100 µM,> 100 µM,> 100 µM,> 100 µM,> 100 µM,> 100 µM,> 100 µM,31.1 µM,> 100 µM,> 100 µM,> 100 µM
CC([C@H]1CCC2C3CCC4C[C@@H](NC=O)CC[C@]4(C)C3CC[C@@]21C)N(C)C (stereo partly drawn),5.71 µM,13.8 µM,5.47 µM,21 µM,1.84 µM,8.71 µM,1.49 µM,3.12 µM,5.17 µM,18 µM,1.85 µM,3.95 µM,2.96 µM,13.8 µM,1.89 µM,4.04 µM,1.91 µM,6.6 µM,2.04 µM,4.08 µM
CC1(C)COCN1COC1CCCCC1,,> 100 µM,,> 100 µM,,83.9 µM,,> 100 µM,,> 100 µM,,> 100 µM,,> 100 µM,,> 100 µM,,> 100 µM,,> 100 µM
O=C1C(=Cc2ccco2)C(=O)C2CCCCC12 (stereo not drawn),,> 100 µM,,> 100 µM,,> 100 µM,,,,> 100 µM,,> 100 µM,,> 100 µM,,> 100 µM,,> 100 µM,,> 100 µM
O=C1C(Cl)=C(Oc2ccc([N+](=O)[O-])cc2)C(=O)c2c(O)ccc(O)c21,,,,> 100 µM,,25.2 µM,,> 100 µM,,> 100 µM,,> 80.9 µM,,> 100 µM,,> 100 µM,,> 60.1 µM,,> 100 µM
Cc1nc2c(=O)[nH]c(=O)n(C)c2[nH]c1=O,,> 100 µM,,> 100 µM,,> 100 µM,,> 100 µM,,> 100 µM,,> 100 µM,,> 100 µM,,> 100 µM,,> 100 µM,,> 100 µM
NCCCN(CCCN)CCCNCc1c2ccccc2c(CNCCCN(CCCN)CCCN)c2ccccc12,,54.9 µM,,> 100 µM,,69.8 µM,,> 100 µM,,25.7 µM,,32.5 µM,,33 µM,,29.2 µM,,19 µM,,21.5 µM
CC1Cc2c(N)nc(NN)nc2NC1=O (stereo not drawn),,,,> 100 µM,,> 100 µM,,> 100 µM,,> 100 µM,,> 100 µM,,> 100 µM,,> 100 µM,,> 100 µM,,> 100 µM
CN(NC(=O)CC(=O)NN(C)C(=S)c1ccccc1)C(=S)c1ccccc1,8.77 µM,> 100 µM,,> 100 µM,,,14.6 µM,> 89.6 µM,73.9 µM,> 100 µM,,> 100 µM,49.8 µM,> 100 µM,0.0843 µM,> 100 µM,,> 100 µM,,> 100 µM
c1cc2c(cc1C(N1CCNCC1)N1CCNCC1)OCO2,,> 100 µM,,> 100 µM,,,,> 100 µM,,> 100 µM,,> 100 µM,,> 100 µM,,> 100 µM,,> 100 µM,,> 100 µM
C=C1C(=O)O[C@@H]2C1C[C@@H](O)/C(C)=C/C/C=C(\C)CCC[C@H](C)[C@H]2OC(C)=O (stereo partly drawn),18.2 µM,67.9 µM,23.2 µM,44.3 µM,,,15.6 µM,39.4 µM,21.3 µM,42.6 µM,26 µM,58.9 µM,23.8 µM,52.4 µM,> 100 µM,> 100 µM,24.9 µM,48.6 µM,22 µM,43.5 µM
COc1ccc(/C=C\c2cc(OC)c(OC)c(OC)c2)cc1OC(=O)C(N)CCC(=O)O (stereo not drawn),7.35e-05 µM,> 100 µM,,0.0415 µM,0.00244 µM,,0.000436 µM and < 0.0001 µM,,,,0.000594 µM,> 100 µM,0.000543 µM and 0.000132 µM,,0.00112 µM,,0.000691 µM and < 0.0316 µM,,0.000597 µM,> 100 µM
COc1ccc(/C=C2\CN(C(=O)C(Cl)Cl)C/C(=C\c3ccc(OC)c(OC)c3)C2=O)cc1OC,1.85 µM,> 100 µM,0.43 µM,1.72 µM,0.135 µM,> 100 µM,0.184 µM,0.423 µM,0.165 µM,0.381 µM,,,0.0405 µM,1.12 µM,0.371 µM,1.72 µM,0.0306 µM,0.155 µM,0.185 µM,0.549 µM
CCCCCCCCCNCCCCCCCCC,1.8 µM,3.41 µM,1.83 µM,3.61 µM,,,1.62 µM,3.8 µM,1.76 µM,3.14 µM,1.76 µM,3.48 µM,1.71 µM,3.15 µM,1.93 µM,3.65 µM,1.96 µM,4.18 µM,1.74 µM,3.35 µM
